Laboratory results: patent US8207216B2, “Benzofuran-3-yl(indol-3-yl) maleimides as potent GSK3 inhibitors” (The Board of Trustees of the University of Illinois, priority 2006, dated 2012)

What was measured:
[1] = target: T1, recombinant human His6-GSK-3β (Homo sapiens, UniProt P49841); assay: GSK-3β kinase assay, [γ32P] transfer to primed glycogen synthase peptide; assay type: biochemical; details: 10 μM ATP; 10 μM pGSM peptide; 30 minutes at 30° C.; read-out: IC50 (nM), GSK-3β inhibition;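 also: phosphate incorporation quantified by liquid scintillation counting of the filters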
T1 construct: His6; purchased EMD Biosciences
T1 sequence (P49841 whole entry): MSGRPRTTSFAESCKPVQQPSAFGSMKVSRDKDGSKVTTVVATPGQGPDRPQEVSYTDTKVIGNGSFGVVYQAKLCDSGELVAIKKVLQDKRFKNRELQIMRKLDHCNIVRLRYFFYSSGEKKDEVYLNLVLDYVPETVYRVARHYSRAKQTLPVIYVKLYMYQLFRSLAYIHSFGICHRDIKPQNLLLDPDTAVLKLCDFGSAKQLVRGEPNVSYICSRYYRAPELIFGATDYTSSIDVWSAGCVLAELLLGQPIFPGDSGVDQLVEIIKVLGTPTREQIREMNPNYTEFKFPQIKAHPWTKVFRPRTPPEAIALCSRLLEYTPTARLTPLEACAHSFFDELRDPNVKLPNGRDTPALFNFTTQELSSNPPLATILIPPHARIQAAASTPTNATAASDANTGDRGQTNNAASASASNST

CDK-2/cyclinE = CDK-2/cyclinE (Homo sapiens, UniProt P24941); assay: CDK-2/CyclinE inhibition (Reaction Biology); assay type: biochemical; details: tested at Reaction Biology, Inc.
HupT3 = assay: Antiproliferation MTS assay, pancreatic cancer cells; assay type: cell-based; details: Homo sapiens
OVCA432 = assay: Antiproliferation assay, ovarian cancer cells; assay type: cell-based; details: ovarian cancer cell proliferation
Method: (§1) The pancreatic cancer cell lines BxPc-3, HupT3, MiaPaCa-2, Panc 04.03, and SU86.86 were obtained from ATCC (Rockville, Md.) and were grown in medium (DMEM or RPMI) containing 10% fetal calf serum and L-glutamine. Pancreatic cancer cells were plated out in duplicate into 6-wells of a 96-well microtiter plate at 2.5−4×10^3 cells per well. Four-hours post plating, individual wells were treated with diluent (DMSO) or varying concentrations of commercial compounds, AR-A014418 and SB216763, or the indicated GSK inhibitors of this invention from a concentration of 1 nM to 50 microM. […] The IC50s were calculated using XLfit (IDBS Limited, Guildford, UK).
(§2) Similar antiproliferation assays were performed using ovarian cancer cells. Compound 40 is of particular interest for inhibition of ovarian cancer cell proliferation.

SKOV3 = assay: Antiproliferation assay, ovarian cancer cells; assay type: cell-based; details: Homo sapiens, SK-OV-3; ovarian cancer cell proliferation
Method: as §1, §2

MIAPaCa-2 = assay: Antiproliferation MTS assay, pancreatic cancer cells; assay type: cell-based; details: Homo sapiens
BXPC-3 = assay: as above; assay type: cell-based; details: Homo sapiens
CDK2 = CDK2 (Homo sapiens, UniProt P24941); assay: Inhibition of various kinases (% inhibition); assay type: biochemical
From the text: (§3) Additional examples of selectivity are illustrated in Table 4.

GSK3α = GSK3α (Homo sapiens, UniProt P49840); assay: Inhibition of various kinases (% inhibition); assay type: biochemical
Chain of GSK3α (P49840 whole entry, species assumed): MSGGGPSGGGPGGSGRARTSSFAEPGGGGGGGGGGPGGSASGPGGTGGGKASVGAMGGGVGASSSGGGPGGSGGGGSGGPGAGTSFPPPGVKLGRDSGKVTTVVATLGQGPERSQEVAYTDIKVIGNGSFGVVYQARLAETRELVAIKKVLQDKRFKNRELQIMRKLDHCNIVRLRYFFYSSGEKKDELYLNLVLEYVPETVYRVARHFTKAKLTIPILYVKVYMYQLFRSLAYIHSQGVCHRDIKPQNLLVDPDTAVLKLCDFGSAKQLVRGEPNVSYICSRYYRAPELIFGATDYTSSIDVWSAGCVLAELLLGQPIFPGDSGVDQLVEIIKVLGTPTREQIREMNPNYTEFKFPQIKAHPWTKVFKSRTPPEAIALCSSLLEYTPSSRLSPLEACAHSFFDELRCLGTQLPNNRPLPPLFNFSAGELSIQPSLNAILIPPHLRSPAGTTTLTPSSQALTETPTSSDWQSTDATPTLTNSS
From the text: as §3

PDK1 = target: T2, PDK1 (Homo sapiens, UniProt O15530); assay: Inhibition of various kinases (% inhibition); assay type: biochemical
T2 sequence (O15530 1-556): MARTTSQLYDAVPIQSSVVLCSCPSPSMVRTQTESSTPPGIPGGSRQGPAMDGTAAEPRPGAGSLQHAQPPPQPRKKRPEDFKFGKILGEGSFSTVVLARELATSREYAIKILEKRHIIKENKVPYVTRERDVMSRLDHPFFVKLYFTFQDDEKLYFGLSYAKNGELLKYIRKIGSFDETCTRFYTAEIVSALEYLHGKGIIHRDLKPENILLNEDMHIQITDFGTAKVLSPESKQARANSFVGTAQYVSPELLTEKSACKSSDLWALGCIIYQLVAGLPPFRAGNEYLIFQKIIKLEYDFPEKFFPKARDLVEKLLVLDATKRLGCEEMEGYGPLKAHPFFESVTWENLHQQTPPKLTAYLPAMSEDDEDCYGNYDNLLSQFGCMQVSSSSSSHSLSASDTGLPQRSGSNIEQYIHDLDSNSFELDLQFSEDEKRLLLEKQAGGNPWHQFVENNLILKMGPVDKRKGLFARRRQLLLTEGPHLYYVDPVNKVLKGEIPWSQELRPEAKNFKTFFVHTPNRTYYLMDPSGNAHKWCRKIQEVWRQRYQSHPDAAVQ
From the text: as §3

PKCβ2 = PKCβ2 (Homo sapiens, UniProt P05771); assay: Inhibition of various kinases (% inhibition); assay type: biochemical
Chain of PKCβ2 (P05771 1-673 isoform P05771-2): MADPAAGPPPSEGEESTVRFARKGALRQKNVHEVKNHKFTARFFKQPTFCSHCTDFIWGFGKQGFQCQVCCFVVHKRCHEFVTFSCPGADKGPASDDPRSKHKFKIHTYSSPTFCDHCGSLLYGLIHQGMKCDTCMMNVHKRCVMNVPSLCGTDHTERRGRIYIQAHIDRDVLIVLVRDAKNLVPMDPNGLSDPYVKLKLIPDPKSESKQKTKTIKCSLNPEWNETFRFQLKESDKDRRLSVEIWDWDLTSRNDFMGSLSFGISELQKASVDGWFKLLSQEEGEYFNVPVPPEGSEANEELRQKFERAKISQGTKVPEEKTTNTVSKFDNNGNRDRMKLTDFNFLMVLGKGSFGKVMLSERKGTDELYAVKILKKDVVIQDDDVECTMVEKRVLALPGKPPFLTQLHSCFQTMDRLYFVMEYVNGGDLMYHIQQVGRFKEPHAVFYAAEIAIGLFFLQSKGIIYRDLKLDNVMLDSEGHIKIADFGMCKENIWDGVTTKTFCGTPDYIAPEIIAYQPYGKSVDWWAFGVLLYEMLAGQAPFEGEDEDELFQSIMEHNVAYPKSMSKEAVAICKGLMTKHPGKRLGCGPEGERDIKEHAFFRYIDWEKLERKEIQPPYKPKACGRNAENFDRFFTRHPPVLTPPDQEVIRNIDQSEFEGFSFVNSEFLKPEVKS
From the text: as §3

C57BL/6J mice = assay: Amphetamine/chlordiazepoxide hyperactivity model of mania, open field locomotor activity; assay type: in vivo; details: 5-ING-135 50 mg/kg, 5 min pretreatment; amphetamine 4 mg/kg + chlordiazepoxide 2.5 mg/kg; 60 min
Method: Hyperactivity models are often used to mimic the mania associated with bipolar disorder.
Certain benzofuran-based ligands of this invention were studied in a novel mouse model of mania that has recently been validated with several clinically effective mood stabilizers. […] Mice were then injected with amphetamine (4 mg/kg) or amphetamine (4 mg/kg) and chlordiazepoxide (2.5 mg/kg) and locomotor activity was monitored for 60 min. The open field is a square box surrounded by an array of infra-red beams and their behavior is automatically recorded for 60 minutes in the open field test chamber (10.75″×10.75″×8″H with infra-red (I/R) array, model ENV 510, MED Associates). After this period the animals were returned to their home cages and then to the main colony.
Control treatments are as indicated. FIG. 1B illustrates similar locomotion activity data of treated mice measured in cm over 5 minute intervals for 60 minutes.

[2] = tested on: pancreatic cancer cell lines; assay: Proliferation and survival of pancreatic cancer cells (overall statements); assay type: cell-based; details: based on data of Table 5
Method: as §1

[3] = HuP-T3, as reported in Gaisina et al. (2009) J. Med. Chem. 52(7), 1853-1863
[4] = MIA PaCa-2, as reported in Gaisina et al. (2009) J. Med. Chem. 52(7), 1853-1863
[5] = BXPC-3, as reported in Gaisina et al. (2009) J. Med. Chem. 52(7), 1853-1863

Compound | IC50 [1] | IC50 (HupT3; [3]) | IC50 (HupT3; HuP-T3, 72 hrs, MTS) | IC50 (MIAPaCa-2; MIA PaCa-2, 72 hrs, MTS) | IC50 (BXPC-3; BXPC-3, 72 hrs, MTS) | IC50 (MIAPaCa-2; [4]) | Inhibition of pancreatic cancer cell proliferation compared with AR-A014418 and SB216768 [2] | also measured
Cn1cc(C2=C(c3coc4ccccc34)C(=O)NC2=O)c2cc(I)ccc21 [Compound 28, 3-Benzofuran-3-yl-4-(5-iodo-1-methyl-1H-indol-3-yl)-pyrrole-2,5-dione] | 15.5 ± 3.5 nM | > 50 µM | > 50 µM |  |  |  |  | IC50 (CDK-2/cyclinE): 1070 nM; IC50 (OVCA432): 20 µM; IC50 (SKOV3): 26.7 µM
N#Cc1ccc2c(c1)c(C1=C(c3coc4cc(F)c(F)cc34)C(=O)NC1=O)cn2CC1CC1 [Compound 35, 1-Cyclopropylmethyl-3-[4-(5,6-difluoro-benzofuran-3-yl)-2,5-dioxo-2,5-dihydro-1H-pyrrol-3-yl]-1H-indole-5-carbonitrile] | 131 ± 22 nM |  | > 50 µM | 14 µM | > 50 µM |  |  | 
C#Cc1ccc2c(c1)c(C1=C(c3coc4ccccc34)C(=O)NC1=O)cn2C [Compound 36, 3-Benzofuran-3-yl-4-(5-ethynyl-1-methyl-1H-indol-3-yl)-pyrrole-2,5-dione] | 9.6 ± 4 nM |  |  | > 50 µM |  |  |  | inhibition at 1 µM (CDK2; 1 μM): 68%; inhibition at 10 µM (CDK2; 10 μM): 100%; inhibition at 1 µM (GSK3α; 1 μM): 89%; inhibition at 10 µM (GSK3α; 10 μM): 100%; inhibition at 1 µM (PDK1; 1 μM): 14%; inhibition at 10 µM (PDK1; 10 μM): 27%; inhibition at 1 µM (PKCβ2; 1 μM): 24%; inhibition at 10 µM (PKCβ2; 10 μM): 74%; Inhibition of hyperactivity produced by amphetamine/chlordiazepoxide (locomotor activity) (C57BL/6J mice): exhibited inhibition of the hyperactivity
Cn1cc(C2=C(c3coc4ccc(F)cc34)C(=O)NC2=O)c2cc(C#CC3CC3)ccc21 [Compound 38, 3-(5-Cyclopropylethynyl-1-methyl-1H-indol-3-yl)-4-(5-fluoro-benzofuran-3-yl)-pyrrole-2,5-dione] | 16.2 ± 3.9 nM | > 50 µM | > 50 µM | 34 µM | > 50 µM | 34 ± 2.2 µM | more effective inhibition of pancreatic cancer cell proliferation than these reference compounds | IC50 (BXPC-3; [5]): > 50 µM
Cn1cc(C2=C(c3coc4ccc(F)cc34)C(=O)NC2=O)c2ccc(O)cc21 [Compound 46, 3-(5-Fluoro-benzofuran-3-yl)-4-(6-hydroxy-1-methyl-1H-indol-3-yl)-pyrrole-2,5-dione] | 14 ± 3 nM |  |  |  |  |  |  | Inhibition of hyperactivity produced by amphetamine/chlordiazepoxide (locomotor activity) (C57BL/6J mice): exhibited inhibition of the hyperactivity
COc1cccc2c(C3=C(c4cn(C)c5cc(C(F)(F)F)ccc45)C(=O)NC3=O)coc12 [Compound 49, 3-(7-Methoxy-benzofuran-3-yl)-4-(1-methyl-6-trifluoromethyl-1H-indol-3-yl)-pyrrole-2,5-dione] | 831 ± 77 nM | 6 ± 0.5 µM | 6 µM | 8 µM | 6 µM | 8 ± 1.2 µM | more effective inhibition of pancreatic cancer cell proliferation than these reference compounds | IC50 (BXPC-3; [5]): 6 ± 0.8 µM
Cn1cc(C2=C(c3coc4cc(F)c(F)cc34)C(=O)NC2=O)c2ccc3ccccc3c21 [Compound 55, 3-(5,6-Difluoro-benzofuran-3-yl)-4-(1-methyl-1H-benzo[g]indol-3-yl)-pyrrole-2,5-dione] | 314 ± 19 nM | 6 ± 0.7 µM | 6 µM | 17 µM | 7 µM | 17 ± 3.2 µM | more effective inhibition of pancreatic cancer cell proliferation than these reference compounds | 
